US6001832A, “[1,2,4]triazolo[4,3-a]quinoxalinone derivatives, their preparation and use” (Novo Nordiskals, priority 1994, dated 1999)

Columns and labels:
AMPA type receptors = assay: 3H-AMPA Binding (Test 1); conditions: displacement of 50% of the specific binding of 3H-AMPA (5 nM); rat cerebral cortical membrane homogenate, 0° C., 30 min, pH 7.1
Method: (§1) The pharmacological properties of the compounds of the present invention can be illustrated by determining their capability for displacing radioactively labelled 2-amino-3-hydroxy-5-methyl-4-isoxazolepropionic acid (AMPA) from the AMPA type receptors.
The displacement activity of the compounds may be shown by determining the IC50 value which represents the concentration (μM) which causes a displacement of 50% of the specific binding of ^3 H-AMPA.
^3 H-AMPA Binding (Test 1)
500 μl of thawed rat cerebral cortical membrane homogenate in Tris-HCl (30 mM), CaCl2 (2.5 mM) and KSCN (100 mM) pH 7.1 were incubated at 0° C. for 30 min. with 25 μl ^3 H-AMPA (5 nM final concentration) and the test compound and buffer. Nonspecific binding was determined by incubation with L-glutamic acid (600 μM final concentration). The binding reaction was terminated by adding 5 ml of ice-cold buffer followed by filtration through Whatman GF/C glass fibre filters and 2×5 ml wash with ice-cold buffer. Bound radioactivity was measured by scintillation counting. IC50 was determined by Hill analysis of at least four concentrations of test compound.

[1] = test system: quisqualic acid stimulated spreading depression in chicken retina; assay: Spreading Depression (Test 2): quisqualic acid stimulated spreading depression in chicken retina; assay type: cell-based; conditions: Gallus gallus, 0.25 h; 50% maximal inhibition of quisqualate (1 μg/ml) stimulated spreading depression in chicken retina; 15 min incubation with test compound, 26° C.
Method: as §1
The antagonism is measured by determining the IC50 value which represents the concentration which produces a 50% maximal inhibition of quisqualic acid stimulated spreading depression in chicken retina.
Spreading Depression (Test 2)
Chicks (3-10 days old) were decapitated, the eyes enucleated and sectioned along the equatorial plane. […]
The eyes were initially incubated in normal P.S.S. for 15-30 min. and then transferred to P.S.S. containing quisqualate (1 μg/ml). […] The time taken for an S.D. to start in each eye was measured.
After a further 15 min. of incubation in normal P.S.S. the eyes were transferred to normal P.S.S. containing the test compound and incubated for 15 min. […] The time taken for an S.D. to start in each eye was measured again. The eyes were then placed back in normal P.S.S. and after 15 min. the time taken for S.D. to start was measured again, in order to assess the degree of recovery from any drug effects. […]

IC50 (AMPA type receptors): 390 nM | IC50 [1]: 400 nM
Structure (SMILES): Cc1cn(-c2cc3c(cc2C(F)(F)F)[nH]c(=O)c2nnc(CP(=O)(O)O)n23)c(-c2ccccc2)n1 [Example 2, 8-(4-Methyl-2-phenyl-1H-imidazol-1-yl)-1-phosphonomethyl-7-trifluoromethyl[1,2,4]triazolo[4,3-a]quinoxalin-4(5H)-one]
